According to patent publication US10485235B2, “Aryloxypyrimidinyl ethers as herbicides” (FMC Corporation, priority 2015, dated 2019):

Columns and labels:
Assay type in all cases: in vivo
[1] = system: ragweed (common ragweed, Ambrosia elatior); test: Test A preemergence, ragweed; conditions: Ambrosia artemisiifolia, pre-emergence, 240 h, read-out: Plant response rating, Ragweed
In short: (§1)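 Ratings run 0–100, where 100 is complete control, and were scored visually against untreated plants about 10 days after treatment under greenhouse conditions. Formulated chemicals were sprayed either onto the soil surface after seeding (preemergence) or onto one- to two-leaf seedlings 2–10 cm high (postemergence).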

[2] = system: galium (catchweed bedstraw, Galium aparine); test: Test A postemergence, galium; conditions: Galium, post-emergence, 240 h, read-out: Plant response rating, Galium
In short: as §1

[3] = system: barnyardgrass (Echinochloa crus-galli); test: Test A preemergence, barnyardgrass; conditions: Echinochloa crus-galli, pre-emergence, 240 h, read-out: Plant response rating, Barnyardgrass
In short: as §1

[4] = system: ragweed (common ragweed, Ambrosia elatior); test: Test A postemergence, ragweed; conditions: Ambrosia artemisiifolia, post-emergence, 240 h, read-out: Plant response rating, Ragweed
In short: as §1

[5] = system: pigweed (Amaranthus retroflexus); test: Test A preemergence, pigweed; conditions: Amaranthus retroflexus, pre-emergence, 240 h, read-out: Plant response rating, Pigweed
In short: as §1

[6] = system: corn (Zea mays); test: Test A postemergence, corn; conditions: Zea mays, post-emergence, 240 h, read-out: Plant response rating, Corn
In short: as §1

[7] = system: kochia (Kochia scoparia); test: Test A preemergence, kochia; conditions: Bassia scoparia, pre-emergence, 240 h, read-out: Plant response rating, Kochia
In short: as §1

[8] = system: pigweed (Amaranthus retroflexus); test: Test A postemergence, pigweed; conditions: Amaranthus retroflexus, post-emergence, 240 h, read-out: Plant response rating, Pigweed
In short: as §1

[9] = system: foxtail, giant (giant foxtail, Setaria faberii); test: Test A preemergence, giant foxtail; conditions: Setaria faberi, pre-emergence, 240 h, read-out: Plant response rating, Foxtail, Giant
In short: as §1

[10] = system: rice (Oryza sativa); test: Test B flooded paddy test, rice; conditions: Oryza sativa, read-out: Plant response rating, Rice
In short: (§2)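 Plants grown to the 2-leaf stage; pots flooded to 3 cm above soil and compounds applied directly into the paddy water, depth held throughout. After 13 to 15 days in the greenhouse, injury was rated visually against untreated controls on a 0–100 scale (0 no effect, 100 complete control).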

[11] = system: barnyardgrass (Echinochloa crus-galli); test: Test A postemergence, barnyardgrass; conditions: Echinochloa crus-galli, post-emergence, 240 h, read-out: Plant response rating, Barnyardgrass
In short: as §1

[12] = system: kochia (Kochia scoparia); test: Test A postemergence, kochia; conditions: Bassia scoparia, post-emergence, 240 h, read-out: Plant response rating, Kochia
In short: as §1

[13] = system: foxtail, giant (giant foxtail, Setaria faberii); test: Test A postemergence, giant foxtail; conditions: Setaria faberi, post-emergence, 240 h, read-out: Plant response rating, Foxtail, Giant
In short: as §1

[14] = system: wheat (Triticum aestivum); test: Test A postemergence, wheat; conditions: Triticum aestivum, post-emergence, 240 h, read-out: Plant response rating, Wheat
In short: as §1

[15] = system: sedge, umbrella (small-flower umbrella sedge, Cyperus difformis); test: Test B flooded paddy test, umbrella sedge; conditions: Cyperus difformis, read-out: Plant response rating, Sedge, Umbrella
In short: as §2

[16] = system: barnyardgrass (Echinochloa crus-galli); test: Test B flooded paddy test, barnyardgrass; conditions: Echinochloa crus-galli, read-out: Plant response rating, Barnyardgrass
In short: as §2

[17] = system: blackgrass (Alopecurus myosuroides); test: Test A postemergence, blackgrass; conditions: Alopecurus myosuroides, post-emergence, 240 h, read-out: Plant response rating, Blackgrass
In short: as §1

[18] = system: ryegrass, Italian (Italian ryegrass, Lolium multiflorum); test: Test A preemergence, Italian ryegrass; conditions: Lolium multiflorum, pre-emergence, 240 h, read-out: Plant response rating, Ryegrass, Italian
In short: as §1

[19] = system: ducksalad (Heteranthera limosa); test: Test B flooded paddy test, ducksalad; conditions: Heteranthera limosa, read-out: Plant response rating, Ducksalad
In short: as §2

[20] = system: ryegrass, Italian (Italian ryegrass, Lolium multiflorum); test: Test A postemergence, Italian ryegrass; conditions: Lolium multiflorum, post-emergence, 240 h, read-out: Plant response rating, Ryegrass, Italian
In short: as §1

FC(F)(F)C(F)(F)C(F)(F)COc1c(Br)cccc1Oc1ncc(Cl)cn1 [Compound 52, 2-[3-bromo-2-(2,2,3,3,4,4,4-heptafluorobutoxy)phenoxy]-5-chloropyrimidine]
70%: pest or weed control at 125 g/ha [5] | pest or weed control at 125 g/ha [12]
75%: pest or weed control at 250 g/ha [19]
50%: pest or weed control at 500 g/ha [3] | pest or weed control at 500 g/ha [18]
20%: pest or weed control at 125 g/ha [4] | pest or weed control at 125 g/ha [13] | plant injury at 500 g/ha [14] | pest or weed control at 500 g/ha [17] | pest or weed control at 125 g/ha [20]
30%: pest or weed control at 125 g/ha [3] | pest or weed control at 500 g/ha [4] | plant injury at 500 g/ha [6]
0%: pest or weed control at 125 g/ha [1] | pest or weed control at 500 g/ha [1] | pest or weed control at 125 g/ha [7] | plant injury at 125 g/ha [14] | pest or weed control at 250 g/ha [16]
90%: pest or weed control at 500 g/ha [2] | pest or weed control at 500 g/ha [12] | pest or weed control at 250 g/ha [15]
40%: pest or weed control at 125 g/ha [2] | pest or weed control at 500 g/ha [7] | pest or weed control at 500 g/ha [20]
10%: plant injury at 125 g/ha [6] | pest or weed control at 125 g/ha [11] | pest or weed control at 125 g/ha [17] | pest or weed control at 125 g/ha [18]
100%: pest or weed control at 500 g/ha [5] | pest or weed control at 500 g/ha [8] | pest or weed control at 500 g/ha [9]
15%: plant injury at 250 g/ha [10]
80%: pest or weed control at 125 g/ha [8] | pest or weed control at 125 g/ha [9] | pest or weed control at 500 g/ha [11] | pest or weed control at 500 g/ha [13]
